According to US20230365576A1, “BRM Targeting Compounds And Associated Methods Of Use” (Prelude Therapeutics Incorporated, priority 2022, published 2023):

Key:
[1] = target: T1, SMARCA4 (Homo sapiens, UniProt P51532); experiment: SMARCA4 HiBiT degradation assay in HeLa cells; assay type: cell-based; conditions: 18 hours; for Dmax: HeLa
T1 construct: SMARCA4-HiBiT knock-in Hela monoclonal cell (CS3023226) were purchased from Promega; host or cells: HeLa (CRISPR HiBiT knock-in monoclonal line, heterozygous)
Experimental: (§1) Example A. SMARCA2 HiBiT and SMARCA4 HiBiT Degradation Assay
(§2) Preparation of SMARCA2/4-HiBiT Knock-In Cells
(§3) HiBiT peptide knock-in of SMARCA2 in LgBiT expressing HEK293T cells was performed by CRISPR-mediated tagging system as described Promega. The homozygous HiBiT knock-in on c-terminus SMARCA2 was confirmed by sanger sequence. SMARCA2-HiBiT knock-in Hela monoclonal cell (CS302366) and SMARCA4-HiBiT knock-in Hela monoclonal cell (CS3023226) were purchased from Promega. The heterozygous HiBiT-knock-in was confirmed by sanger sequence in both SMARCA2-HiBiT and SMARCA4-HiBiT monoclonal cells.
(§4) SMARCA2 HiBiT and SMARCA4 HiBiT Degradation Assay in HeLa Cells
(§5) Compounds were dissolved in DMSO to make 10 mM stock and 3-fold series dilutions were further conducted keeping the highest concentration 10 μM. NCIH1693 and NCIH520 cells were maintained in PRMI 1640 medium (Corning Cellgro, Catalog #:10-040-CV) supplemented with 10% v/v FBS (GE Healthcare, Catalog #: SH30910.03) by splitting 1:3 twice a week.
(§6) Dispense 10 ul aliquot of prepared Hela-SMARCA2-HiBiT or Hela-SMARCA4-HiBiT cells (1:1 ratio of cells:Trypan Blue (#1450013, Bio-Rad)) onto cell counting slide (#145-0011, Bio-Rad) and obtain cell density and cell viability using cell counter (TC20, Bio-Rad). Remove appropriate volume of resuspended cells from culture flask to accommodate 2500 cells/well @ 20 μL/well. Transfer Hela-HiBiT cells to 50 mL conical (#430290, Corning). Spin down at 1000 rpm for 5 min using tabletop centrifuge (SPINCHRON 15, Beckman). Discard supernatant and resuspend cell pellet in modified EMEM (#30-2003, ATCC) cell culture media containing 10% FBS (F2422-500ML, Sigma), and 1X Penicillin/Streptomycin (200 g/L) (30-002-CI, Corning) to a cell density of 125,000 cells/mL. Dispense 20 μL of resuspended Hela-HiBit cells per well in 384-well TC treated plate (#12-565-343, Thermo Scientific) using standard cassette (#50950372, Thermo Scientific) on Multidrop Combi (#5840310, Thermo Scientific) inside laminar flow cabinet. Dispense test compounds onto plates using digital liquid dispenser (D300E, Tecan). Incubate plates in humidified tissue culture incubator @37° C. for 18 hours. Add 20 μL of prepared Nano-Glo® HiBiT Lytic detection buffer (N3050, Promega) to each well of 384-well plate using small tube cassette (#24073295, Thermo Scientific) on Multidrop Combi, incubate @ RT for 30-60 min. Read plates on microplate reader (Envision 2105, PerkinElmer) using 384 well Ultra-Sensitive luminescence mode. Raw data files and compound information reports are swept into centralized data lake and deconvoluted using automated scripts designed by TetraScience, Inc. Data analysis, curve-fitting and reporting done in Dotmatics Informatics Suite using Screening Ultra module.

[2] = target: T2, SMARCA2 (Homo sapiens, UniProt P51531); experiment: SMARCA2 HiBiT degradation assay in HeLa cells; assay type: cell-based; conditions: 18 hours; for DC50: read-out: SMARCA2 IC50; for Dmax: HeLa
T2 construct: SMARCA2-HiBiT knock-in Hela monoclonal cell (CS302366); host or cells: HeLa (CRISPR HiBiT knock-in monoclonal line, heterozygous)
Experimental: as §1, §2, §3, §4, §5, §6

T2 sequence (P51531 whole entry): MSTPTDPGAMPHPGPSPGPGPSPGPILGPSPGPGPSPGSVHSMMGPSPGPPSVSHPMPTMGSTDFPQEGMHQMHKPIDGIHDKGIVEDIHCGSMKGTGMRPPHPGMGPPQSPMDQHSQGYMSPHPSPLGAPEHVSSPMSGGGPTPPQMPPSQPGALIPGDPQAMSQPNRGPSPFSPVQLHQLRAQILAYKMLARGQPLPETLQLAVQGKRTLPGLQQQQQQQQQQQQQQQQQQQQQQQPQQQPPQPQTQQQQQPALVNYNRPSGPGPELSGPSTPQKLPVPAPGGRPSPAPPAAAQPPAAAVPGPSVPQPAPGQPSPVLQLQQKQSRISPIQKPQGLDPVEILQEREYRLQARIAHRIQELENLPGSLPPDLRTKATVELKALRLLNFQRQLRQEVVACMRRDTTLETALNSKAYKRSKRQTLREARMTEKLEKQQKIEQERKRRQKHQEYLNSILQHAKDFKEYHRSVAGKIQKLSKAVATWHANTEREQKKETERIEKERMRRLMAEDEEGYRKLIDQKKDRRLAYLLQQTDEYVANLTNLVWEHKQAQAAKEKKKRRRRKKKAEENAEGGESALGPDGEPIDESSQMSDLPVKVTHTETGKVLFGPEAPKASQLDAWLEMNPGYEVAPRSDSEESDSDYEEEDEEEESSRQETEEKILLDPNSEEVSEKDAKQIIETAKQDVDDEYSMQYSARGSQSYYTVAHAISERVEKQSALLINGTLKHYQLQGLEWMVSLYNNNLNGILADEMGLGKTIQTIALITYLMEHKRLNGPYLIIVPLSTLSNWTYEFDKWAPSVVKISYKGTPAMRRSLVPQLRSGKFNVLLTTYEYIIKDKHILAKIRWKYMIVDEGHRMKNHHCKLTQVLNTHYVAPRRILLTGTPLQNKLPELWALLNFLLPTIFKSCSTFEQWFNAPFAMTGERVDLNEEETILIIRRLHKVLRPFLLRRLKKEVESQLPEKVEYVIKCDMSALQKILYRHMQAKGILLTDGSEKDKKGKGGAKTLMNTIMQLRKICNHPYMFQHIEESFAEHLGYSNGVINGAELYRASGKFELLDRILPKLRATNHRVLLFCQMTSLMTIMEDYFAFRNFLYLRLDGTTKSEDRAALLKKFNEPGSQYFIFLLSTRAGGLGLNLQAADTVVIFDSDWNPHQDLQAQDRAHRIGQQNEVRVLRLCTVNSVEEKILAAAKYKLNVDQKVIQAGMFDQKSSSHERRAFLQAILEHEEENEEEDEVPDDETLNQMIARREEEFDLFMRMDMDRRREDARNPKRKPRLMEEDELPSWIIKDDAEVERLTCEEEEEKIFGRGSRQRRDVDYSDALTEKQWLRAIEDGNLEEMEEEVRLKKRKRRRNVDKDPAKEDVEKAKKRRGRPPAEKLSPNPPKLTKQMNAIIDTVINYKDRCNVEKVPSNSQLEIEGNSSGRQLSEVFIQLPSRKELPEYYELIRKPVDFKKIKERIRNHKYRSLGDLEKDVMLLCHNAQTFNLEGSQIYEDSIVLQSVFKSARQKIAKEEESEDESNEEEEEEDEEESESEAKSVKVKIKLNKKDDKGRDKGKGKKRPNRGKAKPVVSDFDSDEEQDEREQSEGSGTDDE
T1 sequence (P51532 whole entry): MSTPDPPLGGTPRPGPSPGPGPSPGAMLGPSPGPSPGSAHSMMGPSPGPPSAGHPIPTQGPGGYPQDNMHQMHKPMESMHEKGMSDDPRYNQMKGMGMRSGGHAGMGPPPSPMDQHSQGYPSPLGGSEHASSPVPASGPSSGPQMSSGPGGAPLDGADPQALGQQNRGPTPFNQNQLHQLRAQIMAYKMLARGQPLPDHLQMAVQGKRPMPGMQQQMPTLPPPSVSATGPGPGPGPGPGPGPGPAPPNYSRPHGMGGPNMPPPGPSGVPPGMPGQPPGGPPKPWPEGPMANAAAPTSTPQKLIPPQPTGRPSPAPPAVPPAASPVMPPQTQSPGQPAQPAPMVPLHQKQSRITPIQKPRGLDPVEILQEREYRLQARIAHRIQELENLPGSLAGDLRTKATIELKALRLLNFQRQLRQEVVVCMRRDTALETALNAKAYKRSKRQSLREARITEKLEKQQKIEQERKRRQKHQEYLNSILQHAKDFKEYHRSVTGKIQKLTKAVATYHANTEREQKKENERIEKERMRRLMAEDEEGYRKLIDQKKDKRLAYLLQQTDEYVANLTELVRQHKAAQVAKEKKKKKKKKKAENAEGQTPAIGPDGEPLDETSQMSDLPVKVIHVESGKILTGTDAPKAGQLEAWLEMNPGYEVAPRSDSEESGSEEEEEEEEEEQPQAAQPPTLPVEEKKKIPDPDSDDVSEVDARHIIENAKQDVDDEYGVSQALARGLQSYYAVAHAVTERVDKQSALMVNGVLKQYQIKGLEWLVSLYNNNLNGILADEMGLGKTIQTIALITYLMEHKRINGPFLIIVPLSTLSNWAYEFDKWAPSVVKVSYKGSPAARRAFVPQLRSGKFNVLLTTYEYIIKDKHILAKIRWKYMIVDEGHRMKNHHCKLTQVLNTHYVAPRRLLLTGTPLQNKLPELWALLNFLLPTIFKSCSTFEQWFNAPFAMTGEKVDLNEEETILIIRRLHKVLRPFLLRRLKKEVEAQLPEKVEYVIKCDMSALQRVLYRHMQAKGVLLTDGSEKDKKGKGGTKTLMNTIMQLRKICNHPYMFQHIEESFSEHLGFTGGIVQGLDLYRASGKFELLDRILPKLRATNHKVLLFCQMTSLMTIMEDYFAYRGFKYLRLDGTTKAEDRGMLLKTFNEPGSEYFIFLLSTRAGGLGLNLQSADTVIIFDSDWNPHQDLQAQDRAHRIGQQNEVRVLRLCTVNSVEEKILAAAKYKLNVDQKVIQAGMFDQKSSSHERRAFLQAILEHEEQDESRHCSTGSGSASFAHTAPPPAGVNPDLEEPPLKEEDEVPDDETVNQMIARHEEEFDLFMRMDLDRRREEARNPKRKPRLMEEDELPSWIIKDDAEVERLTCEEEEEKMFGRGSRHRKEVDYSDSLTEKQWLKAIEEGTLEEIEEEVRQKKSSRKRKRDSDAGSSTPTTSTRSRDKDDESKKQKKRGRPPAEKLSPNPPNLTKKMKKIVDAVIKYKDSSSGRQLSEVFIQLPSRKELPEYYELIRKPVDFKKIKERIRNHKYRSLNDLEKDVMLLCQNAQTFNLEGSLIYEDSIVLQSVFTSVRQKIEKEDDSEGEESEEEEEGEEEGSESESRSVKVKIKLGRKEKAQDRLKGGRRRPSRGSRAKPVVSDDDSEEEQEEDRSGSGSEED

Row | Structure (SMILES) | DC50 [1] [nM] | DC50 [2] [nM] | Dmax [1] [%] | Dmax [2] [%] | SMARCA4 DMax % [1]
1 | C[C@@H]1C[C@H](CN2CCN(c3ccc4c(c3)C(=O)N([C@H]3CCC(=O)NC3=O)C4)CC2)C[C@H](C)N1C(=O)N1CCN2c3cc(-c4cccc(F)c4O)nnc3NCC2(C)C1 (single isomer, unassigned) [Example 121] | < 100 | < 100 |  |  | 
2 | CCC12CNc3nnc(-c4cc(F)cc(F)c4O)cc3N1CCN(C(=O)C1(F)CCN(CC3CCN(c4ccc5c(c4)C(=O)N([C@H]4CCC(=O)NC4=O)C5)CC3)CC1)C2 (single isomer, unassigned) [Example 109] | < 100 | < 100 | > 75 | > 75 | 
3 | C[C@@H]1CN(CC2CN(c3ccc4c(c3)C(=O)N(C3CCC(=O)NC3=O)C4)C2)C[C@H](C)N1C(=O)N1C[C@@H]2CNc3nnc(-c4cc(F)cc(F)c4O)cc3N2C[C@@H]1C (stereo partly drawn) [Example 24, 3-(6-(3-(((3S,5R)-4-((6aS,9S)-2-(3,5-difluoro-2-hydroxyphenyl)-9-methyl-6,6a,7,8,9,10-hexahydro-5H-pyrazino[1′,2′:4,5]pyrazino[2,3-c]pyridazine-8-carbonyl)-3,5-dimethylpiperazin-1-yl)methyl)azetidin-1-yl)-1-oxoisoindolin-2-yl)piperidine-2,6-dione] | > 1000 | < 100 | < 50 | > 75 | 
4 | O=C1CCC(N2Cc3ccc(N4CCN(C[C@H]5CC[C@@H](CN6CCN7c8cc(-c9cc(F)cc(F)c9O)nnc8NC[C@H]7C6)CC5)CC4)cc3C2=O)C(=O)N1 (stereo partly drawn) [Example 56, 3-(6-(4-(((1R,4s)-4-(((S)-2-(3,5-difluoro-2-hydroxyphenyl)-5,6,6a,7,9,10-hexahydro-8H-pyrazino[1′,2′:4,5]pyrazino[2,3-c]pyridazin-8-yl)methyl)cyclohexyl)methyl)piperazin-1-yl)-1-oxoisoindolin-2-yl)piperidine-2,6-dione] | < 100 | < 100 | > 75 | > 75 | 
5 | CC12CNc3nnc(-c4cccc(F)c4O)cc3N1CCN(C[C@H]1CC[C@H](CN3CCN(c4ccc5c(c4)C(=O)N(C4CCC(=O)NC4=O)C5)CC3)CC1)C2 (single isomer, unassigned) [Example 115] | < 100 | < 100 | 50 to 75 | > 75 | 
6 | CC12CNc3nnc(-c4cc(F)cc(F)c4O)cc3N1CCN(C(=O)C1(F)CCN(CC3CCN(c4ccc5c(c4)C(=O)N([C@H]4CCC(=O)NC4=O)C5)CC3)CC1)C2 (single isomer, unassigned) [Example 112] | < 100 | < 100 |  | > 75 | A (A=Dmax>75%)
7 | C[C@@H]1CN(CC2CCN(c3ccc4c(c3)C(=O)N(C3CCC(=O)NC3=O)C4)CC2)C[C@H](C)N1C(=O)N1CCN2c3cc(-c4cc(F)cc(F)c4O)nnc3NCC2(C)C1 (single isomer, unassigned) [Example 34] | < 100 | < 100 | > 75 | > 75 | 
8 | O=C1CCC(N2Cc3ccc(N4CCN(C[C@H]5CC[C@H](CN6CCN7c8cc(-c9cc(F)cc(F)c9O)nnc8NC[C@H]7C6)CC5)CC4)cc3C2=O)C(=O)N1 (stereo partly shown) [Example 54] | < 100 | < 100 | > 75 | > 75 | 
9 | C[C@@H]1CN(CC2CCN(c3ccc4c(c3)C(=O)N(C3CCC(=O)NC3=O)C4)CC2)C[C@@H](C)N1C(=O)N1CCN2c3cc(-c4cc(F)cc(F)c4O)nnc3NCC2(C)C1 (single isomer, unassigned) [Example 28] | < 100 | < 100 | < 50 | > 75 | 
10 | CCC1CN(CC2CCN(c3ccc4c(c3)C(=O)N(C3CCC(=O)NC3=O)C4)CC2)CCN1C(=O)N1CCN2c3cc(-c4cc(F)cc(F)c4O)nnc3NC[C@H]2C1 (mixture of isomers) [Example 35, 3-(6-(4-((4-((S)-2-(3,5-difluoro-2-hydroxyphenyl)-6,6a,7,8,9,10-hexahydro-5H-pyrazino[1′,2′:4,5]pyrazino[2,3-c]pyridazine-8-carbonyl)-3-ethylpiperazin-1-yl)methyl)piperidin-1-yl)-1-oxoisoindolin-2-yl)piperidine-2,6-dione] | < 100 | < 100 | 50 to 75 | > 75 | 
11 | C[C@@H]1CN(CC2CCN(c3ccc4c(c3)C(=O)N(C3CCC(=O)NC3=O)C4)CC2)[C@@H](C)CN1C(=O)N1CCN2c3cc(-c4cccc(F)c4O)nnc3NCC2(C)C1 (single isomer, unassigned) [Example 91] | 100 to 1000 | < 100 | < 50 | > 75 | 
12 | CCC12CNc3nnc(-c4cc(F)cc(F)c4O)cc3N1CCN(C(=O)N1[C@H](C)CN(CC3CCN(c4ccc5c(c4)C(=O)N(C4CCC(=O)NC4=O)C5)CC3)C[C@@H]1C)C2 (single isomer, unassigned) [Example 61] | < 100 | < 100 |  |  | 

Now from value to compound:

Row | DC50 [1] [nM] | DC50 [2] [nM] | Dmax [1] [%] | Dmax [2] [%] | SMARCA4 DMax % [1] | Structure (SMILES)
13 | < 100 | < 100 |  | > 75 | A (A=Dmax>75%) | C[C@@H]1C[C@H](CN2CCN(c3ccc4c(c3)C(=O)N([C@H]3CCC(=O)NC3=O)C4)CC2)C[C@H](C)N1C(=O)N1CCN2c3cc(-c4cccc(F)c4O)nnc3NCC2(C(F)(F)F)C1 (single isomer, unassigned) [Example 98]
14 | < 100 | < 100 | 50 to 75 | > 75 |  | CCC12CNc3nnc(-c4cccc(F)c4O)cc3N1CCN(C(=O)N1C[C@H](C)N(CC3CCN(c4ccc5c(c4)C(=O)N(C4CCC(=O)NC4=O)C5)CC3)C[C@H]1C)C2 (single isomer, unassigned) [Example 84]
15 | < 100 | < 100 |  |  |  | CC12CNc3nnc(-c4cccc(F)c4O)cc3N1CCN(C[C@H]1CC[C@H](CN3CCN(c4ccc5c(c4)C(=O)N(C4CCC(=O)NC4=O)C5)CC3)CC1)C2 (single isomer, unassigned) [Example 116]
16 | > 1000 | < 100 | < 50 | < 50 |  | O=C1CCC(N2Cc3cc(N4CCO[C@@H](CN5CC[C@H](CN6CCN7c8cc(-c9cc(F)cc(F)c9O)nnc8NC[C@H]7C6)[C@@H](F)C5)C4)ccc3C2=O)C(=O)N1 (stereo partly drawn) [Example 51, 3-(5-((S)-2-(((3R,4R)-4-(((S)-2-(3,5-difluoro-2-hydroxyphenyl)-5,6,6a,7,9,10-hexahydro-8H-pyrazino[1′,2′:4,5]pyrazino[2,3-c]pyridazin-8-yl)methyl)-3-fluoropiperidin-1-yl)methyl)morpholino)-1-oxoisoindolin-2-yl)piperidine-2,6-dione]
17 | < 100 | < 100 | < 50 | > 75 |  | C[C@@H]1CN(CC2CN(c3ccc4c(c3)C(=O)N(C3CCC(=O)NC3=O)C4)C2)C[C@H](C)N1C(=O)N1CCN2c3cc(-c4cccc(F)c4O)nnc3NC[C@H]2C1 (stereo partly drawn) [Example 2, 3-(6-(3-(((3R,5S)-4-((S)-2-(3-fluoro-2-hydroxyphenyl)-6,6a,7,8,9,10-hexahydro-5H-pyrazino[1′,2′:4,5]pyrazino[2,3-c]pyridazine-8-carbonyl)-3,5-dimethylpiperazin-1-yl)methyl)azetidin-1-yl)-1-oxoisoindolin-2-yl)piperidine-2,6-dione]
18 | < 100 | < 100 |  |  |  | CCC12CNc3nnc(-c4cc(F)cc(F)c4O)cc3N1CCN(C(=O)N1[C@H](C)CN(CC3CCN(c4ccc5c(c4)C(=O)N(C4CCC(=O)NC4=O)C5)CC3)C[C@@H]1C)C2 (single isomer, unassigned) [Example 87]
